Laboratory results published in paper PMC6943726, “Discovery of 8-Amino-Substituted 2-Phenyl-2,7-Naphthyridinone Derivatives as New c-Kit/VEGFR-2 Kinase Inhibitors” (Molecules, 2019).

What was measured:
Type in all cases: biochemical
MET = molecular target: T1, MET (Homo sapiens, UniProt P08581); experiment: HTRF enzyme assay with recombinant MET kinase domain; details: purified recombinant MET kinase domain, read-out: Inhibitory Activity, IC50, MET
T1 construct: was evaluated using an enzyme assay with a recombinant kinase domain; purchased Invitrogen (Carlsbad, CA, US)
T1 sequence (P08581 1078-1345 limits assumed): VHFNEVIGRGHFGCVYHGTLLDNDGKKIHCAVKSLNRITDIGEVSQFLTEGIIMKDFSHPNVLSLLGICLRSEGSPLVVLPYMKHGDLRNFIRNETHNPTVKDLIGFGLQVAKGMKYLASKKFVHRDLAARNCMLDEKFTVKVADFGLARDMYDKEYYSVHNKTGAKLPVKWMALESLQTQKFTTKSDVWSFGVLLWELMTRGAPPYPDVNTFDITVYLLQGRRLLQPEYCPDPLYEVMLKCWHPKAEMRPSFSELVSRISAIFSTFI
Procedure: (§1) The ability of the synthesized compounds to inhibit MET, c-Kit, and VEGFR-2 activities was evaluated using an enzyme assay with a recombinant kinase domain [29]. Based on the structure activity relationship (SAR) of MET inhibitors, we proposed that the removal of the key diaryl ether fragments in compound 3 would result in a loss of MET activity.
(§2) The ability of compounds to inhibit the activity of three kinases (MET, c-Kit, and VEGFR-2) was tested in vitro [30]. Enzyme assays were run in homogeneous time-resolved fluorescence (HTRF) format in 384-well microtiter plates using purified kinases purchased from Invitrogen (Carlsbad, CA, US). The HTRF KinEASE TK kit (contains substrate-biotin, antibody-cryptate, streptavidin-XL665, 5×enzymatic buffer, and detection buffer) was purchased from Cisbio (Codolet, France), and the kinase assays were performed according to the manufacturer’s instructions. After the kinases and the compounds incubated at 25~30 °C for 5 min, the reactions were initiated by the addition of 2 μL of mixed substrate solution (mixed solution of ATP (Sigma, Shanghai, China) and substrate-biotin). The final concentrations of kinases were at EC80 and the total reaction volume was 8 μL. Plates were incubated at 30 °C for 30~60 min, then the reactions were quenched by the addition 8 μL mixed detection solution (mixed solution of antibody-cryptate and streptavidin-XL665 in detection buffer). The fluorescence excitation wavelength was […]. The fluorescence at 665 nm (acceptor emission wavelength) and 620 nm (donor emission wavelength) was measured with a PHERAstar FS plate reader (BMG, LABTECH, Ortenberg, Germany) using a time delay of 50 μs. All kinase assays were conducted using ATP concentrations below the enzyme Kmapp and kinase-specific biotinylated substrate peptides.
(§3) The data for dose responses were plotted as percentage of inhibition calculated with the data reduction formula 100 × [1 − (U1 − C2)/(C1 − C2)] versus concentration of compound, where U is the emission ratio of 665 nm and 620 nm of test sample, C1 is the average value obtained for solvent control (2% DMSO), and C2 is the average value obtained for no reaction control (no kinase sample). Inhibition curves were generated by plotting percentage of control activity versus log10 of the concentration of each […]. The IC50 values were calculated by nonlinear regression with Graphpad Prism 5 (GraphPad Software, San Diego, CA).

c-Kit = molecular target: T2, c-Kit (Homo sapiens, UniProt P10721); experiment: HTRF enzyme assay with recombinant c-Kit kinase domain; details: for IC50: purified recombinant c-Kit kinase domain, HTRF, read-out: Inhibitory Activity, IC50, c-Kit
T2 construct: was evaluated using an enzyme assay with a recombinant kinase domain; purchased Invitrogen (Carlsbad, CA, US)
T2 sequence (P10721 589-937 limits assumed): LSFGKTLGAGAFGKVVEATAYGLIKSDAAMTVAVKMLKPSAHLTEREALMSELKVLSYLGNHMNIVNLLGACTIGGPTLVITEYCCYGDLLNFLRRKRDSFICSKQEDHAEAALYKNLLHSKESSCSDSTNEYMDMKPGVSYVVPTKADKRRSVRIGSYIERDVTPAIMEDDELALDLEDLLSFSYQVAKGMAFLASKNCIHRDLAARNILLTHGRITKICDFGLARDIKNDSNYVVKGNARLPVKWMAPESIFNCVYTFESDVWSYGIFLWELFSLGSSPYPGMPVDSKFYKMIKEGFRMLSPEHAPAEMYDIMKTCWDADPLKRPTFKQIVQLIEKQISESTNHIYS
Procedure: as §1, §2, §3

VEGFR-2 = molecular target: T3, VEGFR-2 (Homo sapiens, UniProt P35968); experiment: HTRF enzyme assay with recombinant VEGFR-2 kinase domain; details: for IC50: purified recombinant VEGFR-2 kinase domain, HTRF, read-out: Inhibitory Activity, IC50, VEGFR-2
T3 construct: was evaluated using an enzyme assay with a recombinant kinase domain; purchased Invitrogen (Carlsbad, CA, US)
T3 sequence (P35968 834-1162 limits assumed): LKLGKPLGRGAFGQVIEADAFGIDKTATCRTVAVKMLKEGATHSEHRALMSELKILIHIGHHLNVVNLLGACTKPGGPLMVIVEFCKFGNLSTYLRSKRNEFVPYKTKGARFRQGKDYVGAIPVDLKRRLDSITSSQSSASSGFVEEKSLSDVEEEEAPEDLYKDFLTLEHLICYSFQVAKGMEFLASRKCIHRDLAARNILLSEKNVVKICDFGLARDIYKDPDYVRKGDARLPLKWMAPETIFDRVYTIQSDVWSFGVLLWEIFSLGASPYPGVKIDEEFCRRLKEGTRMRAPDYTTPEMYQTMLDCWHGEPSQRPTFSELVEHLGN
Procedure: as §1, §2, §3

[1] = ratio of IC50 values vs compound 3

Structure (SMILES) | IC50 (MET) | IC50 (c-Kit) | IC50 (VEGFR-2) | c-Kit potency, fold less potent than compound 3 (c-Kit; [1]) | c-Kit potency, fold more potent than compound 3 (c-Kit; [1]) | c-Kit inhibitory activity (in words) (c-Kit) | VEGFR-2 potency, fold more potent than compound 3 (VEGFR-2; [1])
Nc1nccc(Oc2ccc(Nc3nccc4ccn(-c5ccc(F)cc5)c(=O)c34)cc2F)c1Cl [Compound 3, reference compound] | 0.0099 µM | 0.33 µM | 0.28 µM | – | – | – | –
O=c1c2c(Nc3ccccc3)nccc2ccn1-c1ccc(F)cc1 [Compound 9a, 2-(4-fluorophenyl)-8-(phenylamino)-2,7-naphthyridin-1(2H)-one] | > 5 µM | > 5 µM | > 5 µM | – | – | – | –
Cc1cccc(C)c1Nc1nccc2ccn(-c3ccc(F)cc3)c(=O)c12 [Compound 9b, 8-((2,6-dimethylphenyl)amino)-2-(4-fluorophenyl)-2,7-naphthyridin-1(2H)-one] | > 5 µM | > 5 µM | > 5 µM | – | – | – | –
O=c1c2c(Nc3c(Cl)cccc3Cl)nccc2ccn1-c1ccc(F)cc1 [Compound 9c, 8-((2,6-dichlorophenyl)amino)-2-(4-fluorophenyl)-2,7-naphthyridin-1(2H)-one] | > 5 µM | > 5 µM | 0.691 µM | – | – | – | –
O=c1c2c(Nc3cccnc3)nccc2ccn1-c1ccc(F)cc1 [Compound 9d, 2-(4-fluorophenyl)-8-(pyridin-3-ylamino)-2,7-naphthyridin-1(2H)-one] | > 5 µM | > 5 µM | > 5 µM | – | – | – | –
O=c1c2c(Nc3ccc4ccncc4c3)nccc2ccn1-c1ccc(F)cc1 [Compound 9e, 2-(4-fluorophenyl)-8-(isoquinolin-7-ylamino)-2,7-naphthyridin-1(2H)-one] | > 5 µM | > 5 µM | > 5 µM | – | – | – | –
O=c1c2c(NCc3ccccc3)nccc2ccn1-c1ccc(F)cc1 [Compound 9f, 8-(benzylamino)-2-(4-fluorophenyl)-2,7-naphthyridin-1(2H)-one] | > 5 µM | > 5 µM | > 5 µM | – | – | – | –
O=c1c2c(NCc3ccncc3)nccc2ccn1-c1ccc(F)cc1 [Compound 9g, 2-(4-fluorophenyl)-8-((pyridin-4-ylmethyl)amino)-2,7-naphthyridin-1(2H)-one] | > 5 µM | 0.832 µM | 0.601 µM | 2.5 fold | – | – | –
O=c1c2c(NCc3cccnc3)nccc2ccn1-c1ccc(F)cc1 [Compound 9h, 2-(4-fluorophenyl)-8-((pyridin-3-ylmethyl)amino)-2,7-naphthyridin-1(2H)-one] | > 5 µM | > 5 µM | > 5 µM | – | – | – | –
O=c1c2c(NCc3ccco3)nccc2ccn1-c1ccc(F)cc1 [Compound 9i, 2-(4-fluorophenyl)-8-((furan-2-ylmethyl)amino)-2,7-naphthyridin-1(2H)-one] | > 5 µM | > 5 µM | > 5 µM | – | – | – | –
O=c1c2c(NCc3cccc4ccccc34)nccc2ccn1-c1ccc(F)cc1 [Compound 9j, 2-(4-fluorophenyl)-8-((naphthalen-1-ylmethyl)amino)-2,7-naphthyridin-1(2H)-one] | > 5 µM | > 5 µM | > 5 µM | – | – | – | –
O=c1c2c(NCc3ccnc4ccccc34)nccc2ccn1-c1ccc(F)cc1 [Compound 9k, 2-(4-fluorophenyl)-8-((quinolin-4-ylmethyl)amino)-2,7-naphthyridin-1(2H)-one] | > 5 µM | 0.0085 µM | 0.238 µM | – | 38.8 fold | – | –
Cc1cc2ccnc(Nc3cccnc3)c2c(=O)n1-c1ccc(F)cc1 [Compound 10a, 2-(4-fluorophenyl)-3-methyl-8-(pyridin-3-ylamino)-2,7-naphthyridin-1(2H)-one] | > 5 µM | > 5 µM | > 5 µM | – | – | – | –
Cc1cc2ccnc(NCc3cccnc3)c2c(=O)n1-c1ccc(F)cc1 [Compound 10b, 2-(4-fluorophenyl)-3-methyl-8-((pyridin-3-ylmethyl)amino)-2,7-naphthyridin-1(2H)-one] | > 5 µM | > 5 µM | > 5 µM | – | – | – | –
Cc1cc2ccnc(NCc3ccncc3)c2c(=O)n1-c1ccc(F)cc1 [Compound 10c, 2-(4-fluorophenyl)-3-methyl-8-((pyridin-4-ylmethyl)amino)-2,7-naphthyridin-1(2H)-one] | > 5 µM | > 5 µM | > 5 µM | – | – | – | –
Cc1cc2ccnc(NCc3ccnc4ccccc34)c2c(=O)n1-c1ccc(F)cc1 [Compound 10d, 2-(4-fluorophenyl)-3-methyl-8-((quinolin-4-ylmethyl)amino)-2,7-naphthyridin-1(2H)-one] | > 5 µM | 1.61 µM | 0.208 µM | – | – | weak c-Kit inhibitory activity | –
Cc1cc2ccnc(Nc3cccnc3)c2c(=O)n1-c1ccccc1 [Compound 10e, 3-methyl-2-phenyl-8-(pyridin-3-ylamino)-2,7-naphthyridin-1(2H)-one] | > 5 µM | > 5 µM | > 5 µM | – | – | – | –
Cc1cc2ccnc(NCc3cccnc3)c2c(=O)n1-c1ccccc1 [Compound 10f, 3-methyl-2-phenyl-8-((pyridin-3-ylmethyl)amino)-2,7-naphthyridin-1(2H)-one] | > 5 µM | > 5 µM | > 5 µM | – | – | – | –
Cc1cc2ccnc(NCc3ccncc3)c2c(=O)n1-c1ccccc1 [Compound 10g, 3-methyl-2-phenyl-8-((pyridin-4-ylmethyl)amino)-2,7-naphthyridin-1(2H)-one] | > 5 µM | > 5 µM | > 5 µM | – | – | – | –
Cc1cc2ccnc(NCc3ccnc4ccccc34)c2c(=O)n1-c1ccccc1 [Compound 10h, 3-methyl-2-phenyl-8-((quinolin-4-ylmethyl)amino)-2,7-naphthyridin-1(2H)-one] | > 5 µM | > 5 µM | 1.03 µM | – | – | – | –
Cc1cc2ccnc(Nc3cccnc3)c2c(=O)n1-c1ccc(Cl)cc1 [Compound 10i, 2-(4-chlorophenyl)-3-methyl-8-(pyridin-3-ylamino)-2,7-naphthyridin-1(2H)-one] | > 5 µM | > 5 µM | > 5 µM | – | – | – | –
Cc1cc2ccnc(NCc3cccnc3)c2c(=O)n1-c1ccc(Cl)cc1 [Compound 10j, 2-(4-chlorophenyl)-3-methyl-8-((pyridin-3-ylmethyl)amino)-2,7-naphthyridin-1(2H)-one] | > 5 µM | > 5 µM | > 5 µM | – | – | – | –
Cc1cc2ccnc(NCc3ccncc3)c2c(=O)n1-c1ccc(Cl)cc1 [Compound 10k, 2-(4-chlorophenyl)-3-methyl-8-((pyridin-4-ylmethyl)amino)-2,7-naphthyridin-1(2H)-one] | > 5 µM | > 5 µM | 0.263 µM | – | – | – | –
Cc1cc2ccnc(NCc3ccnc4ccccc34)c2c(=O)n1-c1ccc(Cl)cc1 [Compound 10l, 2-(4-chlorophenyl)-3-methyl-8-((quinolin-4-ylmethyl)amino)-2,7-naphthyridin-1(2H)-one] | > 5 µM | 0.107 µM | 0.0565 µM | – | – | slightly stronger c-Kit inhibitory activity than compound 3 | 5.0–8.8 fold
Cc1cc2ccnc(Nc3cccnc3)c2c(=O)n1-c1ccc(OC(F)(F)F)cc1 [Compound 10m, 3-methyl-8-(pyridin-3-ylamino)-2-(4-(trifluoromethoxy)phenyl)-2,7-naphthyridin-1(2H)-one] | > 5 µM | > 5 µM | > 5 µM | – | – | – | –
Cc1cc2ccnc(NCc3cccnc3)c2c(=O)n1-c1ccc(OC(F)(F)F)cc1 [Compound 10n, 3-methyl-8-((pyridin-3-ylmethyl)amino)-2-(4-(trifluoromethoxy)phenyl)-2,7-naphthyridin-1(2H)-one] | > 5 µM | > 5 µM | > 5 µM | – | – | – | –
Cc1cc2ccnc(NCc3ccncc3)c2c(=O)n1-c1ccc(OC(F)(F)F)cc1 [Compound 10o, 3-methyl-8-((pyridin-4-ylmethyl)amino)-2-(4-(trifluoromethoxy)phenyl)-2,7-naphthyridin-1(2H)-one] | > 5 µM | > 5 µM | 0.538 µM | – | – | – | –
Cc1cc2ccnc(NCc3ccco3)c2c(=O)n1-c1ccc(OC(F)(F)F)cc1 [Compound 10p, 8-((furan-2-ylmethyl)amino)-3-methyl-2-(4-(trifluoromethoxy)phenyl)-2,7-naphthyridin-1(2H)-one] | > 5 µM | > 5 µM | > 5 µM | – | – | – | –
